Measured values from patent publication US20240358822A1, “ALLERGY TREATMENT” (ENA RESPIRATORY PTY LTD, priority 2021, published 2024).

Legend:
Format in all cases: cell-based, human
[1] = test system: PBMC from grass pollen allergic patients; assay: Expansion of Th2 cell phenotypes on allergen stimulation, Flow Cytometry; conditions: in the presence of allergen; 6 days
Protocol: FIG. 3. Treatment with INNA-001 suppresses the expansion of pro-allergic Th2 cell phenotypes in response to allergen stimulation. PBMC from grass pollen allergic patients (N=12) were cultured for 6 days with or without allergen (Phlp at 10 μg/mL) and with or without a range of concentrations of INNA-001. After 6 days, the cells were harvested, washed and activated with phorbol 12-myristate 13-acetate (25 ng/mL) and ionomycin (1 μg/mL) for 5 hours. Brefeldin A (10 μg/mL) was added for the final 4 hours of stimulation. Subsequently the cells were washed and stained for anti-human CD4, CD27, CRTH2, CD49d, CD161, IL-13 and IL-4. Analysis was performed by Flow Cytometry. Proliferation of cells was measured using CellTrace violet. All data shown are mean±SEM. Graphs represent normalised changes from baseline (untreated). Statistical analysis was performed using ANOVA with Dunn's multiple comparisons test for within-group comparisons (*p<0.05, **p<0.01, ***p<0.001 for the +Phlp group).
FIG. 4. […]
PBMC from patients with allergy to Timothy grass pollen (Phleum pratense) were cultured for 6 days in the presence or absence of allergen and INNA-001 or control compounds. Allergen-induced proliferation and cytokine production were assessed and the phenotype of proliferating allergen-stimulated T cells was determined.

[2] = test system: PBMC from grass pollen allergic patients; assay: IL-10 producing monocytes after 24 hours PBMC culture, Flow Cytometry
Protocol: FIG. 12. […] PBMC from grass pollen allergic patients were cultured for 24 hours with or without allergen (Phlp at 10 μg/mL) and with or without a range of concentrations of INNA-001 or Pam2CSK4 (0.3, 3 and 10 μg/mL). At 24 hours the cells were harvested, washed and stained for anti-human CD14, CD16 and IL-10. Analysis was performed by Flow Cytometry. A) Flow Cytometry representative plots (N=3) for percentage of IL-10-producing subpopulation of non-classical (CD14^low CD16^+) monocytes after treatment with […] of TLR2 agonists (INNA-001 or Pam2CSK4) in the presence of Phlp. B) Quantification (N=12) of IL-10 producing non-classical (CD14^low CD16^+) and C) Quantification (N=12) of IL-10 producing classical (CD14^highCD16^−) monocytes. All data shown are mean±SEM. Graphs represent changes from baseline (untreated). Statistical analysis was performed using ANOVA with Dunn's multiple comparisons test for within-group comparisons. Mann-Whitney U test was performed for between-group comparisons. Statistical significance in the +Phlp group: *p<0.05, **p<0.01, ***p<0.001.
FIG. 13. […] PBMC from grass pollen allergic patients (N=3) were cultured for 24 hours with or without allergen (Phlp at 10 μg/mL) and with or without a range of concentrations of INNA-001, INNA-003 or INNA-006 (0.3, 3, 10 and 30 μg/ml). At 24 hours the cells were harvested, washed and stained for anti-human CD14, CD16 and IL-10. Analysis was performed by Flow Cytometry. All data shown are mean±SEM.
To examine it, PBMC from patients with allergy to Timothy grass pollen (Phleum pratense) were cultured with INNA-001 or control TLR2 agonist compounds, in the presence or absence of allergen, for 24 hours. At 24 hours the cells were harvested, washed and stained for IL-10 and the monocyte markers CD16 and CD14, using relevant anti-human antibodies. Analysis of the monocyte populations (classical and non-classical monocytes) was performed by Flow Cytometry. Lymphoid cells were excluded using antibodies against lineage markers CD3, CD4, CD15, CD19, CD56.

[3] = test system: PBMC from grass pollen allergic patients; assay: CD4+ T regulatory cell induction in PBMC, 6 days, Flow Cytometry / FlowSOM
Protocol: FIG. 14. […] PBMC from grass pollen allergic patients were cultured for 6 days with or without allergen (Phlp at 10 μg/mL) and with or without a range of concentrations of INNA-001 or Pam2CSK4 (0.3, 3 and […]). At day 6 the cells were harvested, washed and stained for anti-human CD4, CD25, CD127 and Foxp3. Analysis was performed by Flow Cytometry. All data shown are mean±SEM. Graphs represent changes from baseline (untreated). Statistical analysis was performed using ANOVA with Dunn's multiple comparisons test for within-group comparisons. Mann-Whitney U test was performed for between-group comparisons. Statistical significance in the +Phlp group: *p<0.05, **p<0.01, ***p<0.001.
FIG. 15. […] PBMC from grass pollen allergic patients were cultured for 6 days with or without allergen (Phlp at 10 μg/mL) and with or without a range of concentrations of INNA-001 or Pam2CSK4 (0.3, 3 and 10 μg/ml). At day 6 the cells were harvested, washed and stained for anti-human CD4, CD25, CD127, Foxp3 and CD45RO. Analysis was performed by Flow Cytometry. All data shown are mean±SEM. Graphs represent changes from baseline (untreated) (A) naive FoxP3^+CD25^+CD127^−CD4^+CD45RO^− cells, and (B) memory FoxP3^+CD25^+CD127^−CD4^+CD45RO^+ cells. Statistical analysis was performed using ANOVA with Dunn's multiple comparisons test for within-group comparisons. Mann-Whitney U test was performed for between-group comparisons. Statistical significance in the +Phlp group: *p<0.05, **p<0.01, ***p<0.001.
FIG. 16. […] PBMC from grass pollen allergic patients (N=3 for INNA=003 & INNA-006, N=7 for INNA-001 & Pam2CSK4) were cultured for 6 days with or without allergen (Phlp at 10 μg/mL) and with or without a range of concentrations of INNA-001, INNA-003, INNA-006 or Pam2CSK4 (0.3, 3 and 10 μg/mL). At day 6 the cells were harvested, washed and stained for anti-human CD4, CD25, CD127, Foxp3 and CD45RO. Analysis was performed by Flow Cytometry. All data shown are mean±SEM.
FIG. 17. […] PBMC from grass pollen allergic patients were cultured for 6 days with allergen (Phlp at 10 μg/mL) and with or without INNA-001 or Pam2CSK4 (3 μg/mL). At 6 days the cells were harvested, washed and stained for anti-human Foxp3, CD4, CD25, CD45RO, CD127, CTLA4 and SABT1. Analysis was performed by Flow Cytometry. The data were further analysed using unbiased FlowSOM technique. Foxp3^+ T regulatory cell metacluster identification following treatment with INNA-001 A) in the presence of Phlp (N=3) or B) absence of Phlp (N=3). C) Heatmap display of the marker expression profile of the identified metaclusters (N=3). D) Quantification of population abundance of the metaclusters 3, 5 and 9 following INNA-001 and Pam2CSK4 treatment in the presence of Phlp (N=3). […]

[4] = test system: PBMC from grass pollen allergic patients; assay: Kinetics of IL-10 production by PBMC, ELISA
Protocol: (§1) FIG. 9. […] PBMC from grass pollen allergic patients (N=3) were cultured for 24 hours with or without a range of allergen concentrations (Phlp at […]), in the presence or absence of a range of INNA-001, INNA-006 or Pam2CSK4 concentrations (from 0.01 to 10 μg/mL). The culture supernatants were harvested and the levels of IL-10 (A) and IL-6 (B) were measured by ELISA. All data shown are mean±SEM.
(§2) FIG. 10. […] PBMC from grass pollen allergic patients (N=3) were cultured for 24 hours, 72 hours or 6 days, with or without allergen (Phlp 10 mg/mL), in the presence or absence of a range of INNA-001, INNA-006 or Pam3CSK4 concentrations (0.3, 3, 10 and 30 μg/mL). The culture supernatants were harvested and the levels of IL-10 were measured by ELISA. All data shown are mean±SEM.
(§3) PBMC from patients with allergy to Timothy grass pollen (Phleum pratense) or cat (Fel d 1) were cultured for 24 hours, 72 hours or 6 days, in the presence or absence of allergen and INNA-001, INNA-006 or Pam3CSK4 (a TLR2 agonist known to induce IL-10 production) and the production of IL-10 and IL-6 (used as a control, TLR2-induced cytokine) was measured in the cell culture supernatants.

[5] = test system: PBMC from grass pollen allergic patients; assay: IL-6 production by PBMC at 24 hours, ELISA
Protocol: as §1, §3

[6] = test system: PBMC from cat allergic patients; assay: IL-10 production by PBMC of cat allergic patients, ELISA; conditions: 24 hours, 72 hours, 6 days; cat allergen Feld 1
Protocol: as §2, with “11.” for “10.”, “cat” for “grass pollen”, “(Feld 1 0.1 or […]),” for “(Phlp 10 mg/mL),”, “Pam2CSK4” for “Pam3CSK4”, “Elisa.” for “ELISA. All data shown are mean±SEM.”
as §3

Pam2CSK4
number of proliferating IL-13 producing-Th2 (CD4+CD27-CRTH2+IL-13+) cells [1]: also reduced the number of proliferating Th2 (CD4+CD27−CRTH2+IL-13+) cells, but to a lesser degree than INNA-001
number of IL-10+ non-classical CD14low/CD16+ monocytes ([2]; 24 hours): increase, although slightly less pronounced
numbers of IL-10+ classical CD14high/CD16- monocytes ([2]; 24 hours): lower increase
influence of allergen on IL-10+ classical monocytes ([2]; with versus without allergen): independent of the presence of allergen
memory FoxP3+CD25+CD127-CD4+CD45RO+ T regulatory cells [3]: Analogous
naive FoxP3+CD25+CD127-CD4+CD45RO- T regulatory cells [3]: Analogous
total number of CD4+CD25+CD127- regulatory T cells [3]: Analogous results
expansion of Foxp3+ T regulatory cell metaclusters MC3, MC5 and MC9 (FlowSOM) ([3]; 3 μg/mL): the same metaclusters were also found prominent

Pam3CSK4
IL-10 generation at 24 hours ([4]; 24 hours, presence or absence of allergen): rapid, dose-dependent generation of IL-10
IL-10 levels at 72 hours and 6 days ([4]; 72 hours, 6 days): remained high, but with declining levels
influence of parallel allergen stimulation on IL-10 production ([4]; with versus without allergen): did not appear to considerably influence
IL-6 generation at 24 hours [5]: strong IL-6 generation
influence of parallel allergen stimulation on IL-6 production ([5]; with versus without allergen): did not appear to influence
IL-10 upregulation in PBMC of cat allergic subjects [6]: stimulated dose-dependent upregulation of IL-10
